Calls of active or inactive are those of the source.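 Rule for the calls: active = fitted curve climbs past 10% caspase activation, relative to the positive control, at or below the top valid tested dose; inactive = the rest, including activity in the opposite direction.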
Test system: not listed separately
Experiment: caspase activation in A1-2A-BIM fibroblasts – cell-based, MEF A1-2A-BIM, luminescence, dry powder, set 2, Bcl2-A1 inhibitor project, dose response (AID 504345)
Conditions: MEF A1-2A-BIM cells, caspase 3/7 luminescence; at 35 µM (top of the series)
For CN1C(=O)C(C)(C)N(Cc2ccccc2)c2ccccc21, the caspase activation was 0.119% (inactive).
In the case of C/C1=C/C(=O)O[C@@H]2C[C@@H](CC[C@H](C)/C=C\CC1)O[C@@](O)(C1CSC(=O)N1)C2 (stereo partly specified), the caspase activation is reported as 9.53% (inactive).
With CCSc1c([N+](=O)[O-])c(=O)oc2ccccc12 the caspase activation was -6.49% (inactive).
For O=c1oc2ccccc2c(Cl)c1[N+](=O)[O-], the caspase activation was -8.87% (inactive).
For O=[N+]([O-])c1cnc2ccccc2c1Sc1ccccc1, the caspase activation was -2.86% (inactive).
In the case of O=c1oc2ccccc2c(Nc2cc(Cl)cc(Cl)c2)c1[N+](=O)[O-], the caspase activation is reported as -2.92% (inactive).
In the case of Cc1ccc(Sc2cc(=O)n(C)c3ccccc23)cc1, the caspase activation is reported as -11.4% (inactive).
With CCOCCCNc1c([N+](=O)[O-])c(=O)n(C)c2ccccc12 the caspase activation was 2.29% (inactive).
In the case of Cc1ccc(Nc2c([N+](=O)[O-])c(=O)n(C)c3ccccc23)cc1, the caspase activation is reported as -2.07% (inactive).
With Cn1c(=O)c([N+](=O)[O-])c(Oc2ccccc2)c2ccccc21 the caspase activation was 4.18% (inactive).
For O=c1oc2ccccc2c(N2CCCCC2)c1[N+](=O)[O-], the caspase activation was -1.93% (inactive).
For O=c1oc2ccccc2c(Sc2ccccc2)c1[N+](=O)[O-], the caspase activation was -9.2% (inactive).
For CCOC(=O)N1CCN(c2c([N+](=O)[O-])c(=O)n(C)c3ccccc23)CC1, the caspase activation was -2.42% (inactive).
With Cc1ccc(Nc2c([N+](=O)[O-])c(=O)oc3ccccc23)cc1 the caspase activation was 1.97% (inactive).
In the case of Cn1c(=O)c([N+](=O)[O-])c(Nc2ccc(Cl)cc2)c2ccccc21, the caspase activation is reported as -1.07% (inactive).
For O=C(Oc1cccc(/C=N/Nc2nc(Nc3ccccc3)nc(N3CCOCC3)n2)c1)c1ccco1, the caspase activation was 6.44% (inactive).
In the case of Cc1ccc(Sc2c([N+](=O)[O-])c(=O)oc3ccccc23)cc1, the caspase activation is reported as -5.88% (inactive).

Test system: MEF A1-2A-BIM cells, caspase 3/7 luminescence
Experiment: as above
Conditions: not given
In the case of Cn1c(=O)c([N+](=O)[O-])c(-n2cnc3ccccc32)c2ccccc21, the AC10 is reported as 9.42 µM.
Cc1ccc(Sc2c([N+](=O)[O-])c(=O)n(C)c3ccccc23)cc1 showed an AC10 of 4.06 µM.
Cc1ccc(Sc2c([N+](=O)[O-])cnc3ccccc23)cc1 showed an AC10 of 8.65 µM.
Cn1c(=O)c([N+](=O)[O-])c(Cl)c2ccccc21 gave an AC10 of 0.632 µM.
